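Interpolation was linear, between the two tested concentrations surrounding the appropriate level; five concentrations were tested over 48 hours in 96-well plates. TGI: concentration producing complete growth inhibition.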
Legend:
Assay in all cases: NCI tumour cell line growth inhibition, 48 h
[1] = tested on: SN12C renal
[2] = tested on: NCI-H522 lung
[3] = tested on: RXF 393 renal
[4] = tested on: DU-145 prostate
[5] = tested on: SW-620 colon
[6] = tested on: M14 melanoma
[7] = tested on: SNB-19 CNS
[8] = tested on: COLO 205 colon
[9] = tested on: 786-0 renal
[10] = tested on: A549 NSCLC
[11] = tested on: HT29 colon
[12] = tested on: M19-MEL melanoma
[13] = tested on: SNB-78 CNS
[14] = tested on: PC-3 prostate
[15] = tested on: OVCAR-4 ovarian
[16] = tested on: NCI-H226 lung
[17] = tested on: LXFL 529 NSCLC
[18] = tested on: A498 renal
[19] = tested on: UO-31 renal
[20] = tested on: HS 578T breast
[21] = tested on: KM20L2 colon
[22] = tested on: KM12 colon
[23] = tested on: OVCAR-3 ovarian
[24] = tested on: UACC-62 melanoma
[25] = tested on: U251 CNS
[26] = tested on: HOP-92 NSCLC
[27] = tested on: UACC-257 melanoma
[28] = tested on: EKVX NSCLC
[29] = tested on: DMS 273 small cell lung
[30] = tested on: OVCAR-8 ovarian
[31] = tested on: SK-MEL-2 melanoma
[32] = tested on: T-47D breast
[33] = tested on: HOP-62 NSCLC
[34] = tested on: HCT-15 colon
[35] = tested on: NCI-H460 lung
[36] = tested on: SF-539 CNS
[37] = tested on: DLD-1 colon
[38] = tested on: SF-295 CNS
[39] = tested on: K-562 leukemia
[40] = tested on: CAKI-1 renal
[41] = tested on: HCC-2998 colon
[42] = tested on: ACHN renal
[43] = tested on: HL-60(TB) leukemia
[44] = tested on: SK-MEL-5 melanoma
[45] = tested on: SK-OV-3 ovarian
[46] = tested on: XF 498 CNS
[47] = tested on: IGROV1 ovarian
[48] = tested on: MALME-3M melanoma
[49] = tested on: SNB-75 CNS
[50] = tested on: TK-10 renal
[51] = tested on: HOP-18 NSCLC
[52] = tested on: SK-MEL-28 melanoma
[53] = tested on: HCT-116 colon
[54] = tested on: DMS 114 small cell lung
[55] = tested on: SF-268 CNS
[56] = tested on: BT-549 breast
[57] = tested on: OVCAR-5 ovarian
[58] = tested on: NCI-H23 lung
[59] = tested on: LOX IMVI melanoma
[60] = tested on: RPMI-8226 leukemia
[61] = tested on: CCRF-CEM leukemia
[62] = tested on: MOLT-4 leukemia

Compound: C=C1C(=O)C23C(O)C1CC[C@H]2C12CCCC(C)(COC(C)=O)[C@H]1[C@H](O)[C@]3(O)OC2 (some centres not stated)
- TGI [1]: 3.44 µM
- TGI [2]: 0.902 µM
- TGI [3]: 1.58 µM
- TGI [4]: 16.2 µM
- TGI [5]: 1.92 µM
- TGI [6]: 2.84 µM
- TGI [7]: 7.03 µM
- TGI [8]: 4.14 µM
- TGI [9]: 2.24 µM
- TGI [10]: 9.95 µM
- TGI [11]: 3.36 µM
- TGI [12]: 4.69 µM
- TGI [13]: 2.96 µM
- TGI [14]: 3.78 µM
- TGI [15]: 5.49 µM
- TGI [16]: 5.7 µM
- TGI [17]: 1.69 µM
- TGI [18]: 6.77 µM
- TGI [19]: 3.35 µM
- TGI [20]: 9.99 µM
- TGI [21]: 3.01 µM
- TGI [22]: 6.07 µM
- TGI [23]: 2.99 µM
- TGI [24]: 3.16 µM
- TGI [25]: 5.4 µM
- TGI [26]: 3.02 µM
- TGI [27]: 3.67 µM
- TGI [28]: 9.67 µM
- TGI [29]: 4.22 µM
- TGI [30]: 3.52 µM
- TGI [31]: 3.49 µM
- TGI [32]: 9.59 µM
- TGI [33]: 8.56 µM
- TGI [34]: 2.37 µM
- TGI [35]: 6.36 µM
- TGI [36]: 3.07 µM
- TGI [37]: 1.7 µM
- TGI [38]: 2.41 µM
- TGI [39]: 1.07 µM
- TGI [40]: 3.44 µM
- TGI [41]: 3.32 µM
- TGI [42]: 3.32 µM
- TGI [43]: 1.04 µM
- TGI [44]: 3.26 µM
- TGI [45]: 13.3 µM
- TGI [46]: 2.71 µM
- TGI [47]: 4.05 µM
- TGI [48]: 3.01 µM
- TGI [49]: 4.33 µM
- TGI [50]: 3.62 µM
- TGI [51]: 2.54 µM
- TGI [52]: 2.97 µM
- TGI [53]: 2.3 µM
- TGI [54]: 4.35 µM
- TGI [55]: 6.95 µM
- TGI [56]: 2.86 µM
- TGI [57]: 5.18 µM
- TGI [58]: 3.53 µM
- TGI [59]: 3.17 µM
- TGI [60]: 1.76 µM
- TGI [61]: 1.16 µM
- TGI [62]: 0.72 µM
